Active and inactive are the calls of the source. No cut-off for these calls is given here.
How the values were obtained:
[1] = system: HT-29; assay: Induction of apoptosis in human HT-29 cells assessed as upregulation of cleaved caspase 9 expression incubated for 24 hrs by Western blot analysis; format: functional, cell-based; conditions: dose 2.5-10 µM
[2] = system: HT-29; assay: Antitumor activity against human HT-29 cells xenografted in BALB/c mouse assessed as tumor growth inhibition at 40 mg/kg, ip administered daily for 3 weeks by caliper method; format: functional; conditions: HT-29, 504 h, read-out: TGI
[3] = system: HT-29; assay: Potency index, ratio of 5-Fu IC50 to test compound IC50 for antiproliferative activity against human HT-29 cells; format: functional
[4] = Toxicity in BALB/c mouse xenografted with human HT-29 cells assessed as spleen damage at 40 mg/kg, ip measured after 21 days by H and E staining based assay; format: organism-based; conditions: in vivo, 504 h, time 21 day
[5] = system: HT-29; assay: Induction of apoptosis in human HT-29 cells assessed as necrotic cells at 2.5 uM incubated for 24 hrs by FITC Annexin-V and PI staining based flow cytometry analysis (reference value: 0.13%); format: functional
[6] = Toxicity in BALB/c mouse xenografted with human HT-29 cells assessed as lung damage at 40 to 80 mg/kg, ip measured after 21 days by H and E staining based assay; format: organism-based; conditions: in vivo, 504 h, dose 40-80 mg/kg, time 21 day
[7] = system: HT-29; assay: cells; conditions: Homo sapiens, HT-29, 72 h
Description: Antiproliferative activity against human HT-29 cells incubated for 72 hrs by MTT assay

[8] = Toxicity in BALB/c mouse xenografted with human HT-29 cells assessed as spleen damage at 40 to 80 mg/kg, ip measured after 21 days by H and E staining based assay; format: organism-based; conditions: in vivo, 504 h, dose 40-80 mg/kg, time 21 day
[9] = system: HCT-8; assay: Antiproliferative activity against human HCT-8 cells incubated for 72 hrs by MTT assay; format: functional, cell-based; conditions: HCT-8, 72 h
[10] = system: HT-29; assay: Induction of apoptosis in human HT-29 cells assessed as early apoptotic cells at 0.625 uM incubated for 24 hrs by FITC Annexin-V and PI staining based flow cytometry analysis (reference value: 2.15%); format: functional
[11] = system: HT-29; assay: Induction of apoptosis in human HT-29 cells assessed as viable cells at 10 uM incubated for 24 hrs by FITC Annexin-V and PI staining based flow cytometry analysis (reference value: 96.94%); format: functional; conditions: read-out: Activity
[12] = system: HT-29; assay: Induction of apoptosis in human HT-29 cells assessed as early apoptotic cells at 10 uM incubated for 24 hrs by FITC Annexin-V and PI staining based flow cytometry analysis (reference value: 2.15%); format: functional
[13] = system: HT-29; assay: Induction of apoptosis in human HT-29 cells assessed as viable cells at 5 uM incubated for 24 hrs by FITC Annexin-V and PI staining based flow cytometry analysis (reference value: 96.94%); format: functional; conditions: read-out: Activity
[14] = system: HT-29; assay: Induction of apoptosis in human HT-29 cells assessed as upregulation of BAD expression incubated for 24 hrs by Western blot analysis; format: functional, cell-based; conditions: dose 2.5-10 µM
[15] = system: HT-29; assay: Induction of apoptosis in human HT-29 cells assessed as viable cells at 1.25 uM incubated for 24 hrs by FITC Annexin-V and PI staining based flow cytometry analysis (reference value: 96.94%); format: functional; conditions: read-out: Activity
[16] = system: HT-29; assay: Induction of apoptosis in human HT-29 cells assessed as late apoptotic cells at 5 uM incubated for 24 hrs by FITC Annexin-V and PI staining based flow cytometry analysis (reference value: 0.78%); format: functional
[17] = system: HT-29; assay: Downregulation of c-Myc expression in human […] cells incubated for 24 hrs by Western blot analysis; format: functional, cell-based; conditions: dose 2.5-10 µM
[18] = system: HT-29; assay: Induction of cell cycle arrest in human HT-29 cells assessed as accumulation of cells at S phase at 0.625 uM incubated for 24 hrs by propidium iodide staining based flow cytometry analysis (reference value: 12.01 %); format: functional
[19] = system: HT-29; assay: Induction of apoptosis in human HT-29 cells assessed as late apoptotic cells at 1.25 uM incubated for 24 hrs by FITC Annexin-V and PI staining based flow cytometry analysis (reference value: 0.78%); format: functional
[20] = Toxicity in BALB/c mouse xenografted with human HT-29 cells assessed as kidney damage at 40 to 80 mg/kg, ip measured after 21 days by H and E staining based assay; format: organism-based; conditions: in vivo, 504 h, dose 40-80 mg/kg, time 21 day
[21] = species: Homo sapiens; assay: Inhibition of human c-Myc (353 to 439 residues)/Max(S) (151 residues) expressed in Escherichia coli BL21(DE3) binding to biotinylated double-stranded DNA oligonucleotide 5'-CACCCGGTCACTGGCCTACAC-3' (unknown origin) at 20 uM preincubated for 90 mins followed by oligonucleotide addition for 25 mins by EMSA; conditions: time 115.0 min
[22] = system: HT-29; assay: Induction of apoptosis in human HT-29 cells assessed as upregulation of cleaved PARP expression incubated for 24 hrs by Western blot analysis; format: functional, cell-based; conditions: dose 2.5-10 µM
[23] = system: HT-29; assay: Induction of apoptosis in human HT-29 cells assessed as early apoptotic cells at 1.25 uM incubated for 24 hrs by FITC Annexin-V and PI staining based flow cytometry analysis (reference value: 2.15%); format: functional
[24] = Toxicity in BALB/c mouse xenografted with human HT-29 cells assessed as body weight loss at 40 to 80 mg/kg, ip measured after 21 days; format: organism-based; conditions: in vivo, 504 h, dose 40-80 mg/kg, time 21 day
[25] = system: HCT-116; assay: Downregulation of c-Myc expression in human HCT-116 cells at 10 uM incubated for 24 hrs by Western blot analysis; format: functional, cell-based
[26] = system: HT-29; assay: Induction of cell cycle arrest in human HT-29 cells assessed as accumulation of cells at S phase at 1.25 uM incubated for 24 hrs by propidium iodide staining based flow cytometry analysis (reference value: 12.01 %); format: functional
[27] = system: HT-29; assay: Induction of cell cycle arrest in human HT-29 cells assessed as accumulation of cells at G1 phase at 1.25 uM incubated for 24 hrs by propidium iodide staining based flow cytometry analysis (reference value: 65.37 %); format: functional
[28] = system: HT-29; assay: Induction of cell cycle arrest in human HT-29 cells assessed as accumulation of cells at G2 phase at 5 uM incubated for 24 hrs by propidium iodide staining based flow cytometry analysis (reference value: 16.33 %); format: functional
[29] = system: HT-29; assay: Induction of apoptosis in human HT-29 cells assessed as late apoptotic cells at 0.625 uM incubated for 24 hrs by FITC Annexin-V and PI staining based flow cytometry analysis (reference value: 0.78%); format: functional
[30] = Toxicity in BALB/c mouse xenografted with human HT-29 cells assessed as liver damage at 40 to 80 mg/kg, ip measured after 21 days by H and E staining based assay; format: organism-based; conditions: in vivo, 504 h, dose 40-80 mg/kg, time 21 day
[31] = system: HT-29; assay: Induction of apoptosis in human HT-29 cells assessed as necrotic cells at 5 uM incubated for 24 hrs by FITC Annexin-V and PI staining based flow cytometry analysis (reference value: 0.13%); format: functional
[32] = system: HT-29; assay: Induction of cell cycle arrest in human HT-29 cells assessed as accumulation of cells at S phase at 2.5 uM incubated for 24 hrs by propidium iodide staining based flow cytometry analysis (reference value: 12.01 %); format: functional
[33] = system: HT-29; assay: Induction of apoptosis in human HT-29 cells assessed as viable cells at 0.625 uM incubated for 24 hrs by FITC Annexin-V and PI staining based flow cytometry analysis (reference value: 96.94%); format: functional; conditions: read-out: Activity
[34] = species: Homo sapiens; assay: Inhibition of human Myc (353 to 439 residues)/Max(S) (151 residues) expressed in Escherichia coli BL21(DE3) binding to biotinylated double-stranded DNA oligonucleotide 5'-CACCCGGTCACTGGCCTACAC-3' (unknown origin) preincubated for 90 mins followed by oligonucleotide addition for 25 mins by EMSA; conditions: time 115.0 min

IC50 [7]: 290 nM | IC50 [9]: 3.12 µM | inhibition [21]: 100% | inhibition [34]: Dose-Dependent Effect
Compound: COc1cc(Oc2ccc(Nc3ccc(CCCO)cc3)cc2)cc(OC)c1CNCCc1ccc(C(F)(F)F)cc1
Activity [1]: Dose-Dependent Effect | inhibition in vivo at 40 mg/kg [2]: 65.5% | Ratio IC50 [3]: 32 | Activity [4]: Toxic | Activity [5]: 3.95% | Activity [6]: Non-Toxic | Activity [8]: Non-Toxic | Activity [10]: 5.9% | viability at 10 µM [11]: 55.6% | Activity [12]: 29.06% | viability at 5 µM [13]: 69% | Activity [14]: Dose-Dependent Effect | viability at 1.25 µM [15]: 81% | Activity [16]: 7.67% | Activity [17]: Dose-Dependent Effect | Activity [18]: 14.41% | Activity [19]: 4.55% | Activity [20]: Non-Toxic | Activity [22]: Dose-Dependent Effect | Activity [23]: 12.78% | Activity [24]: Non-Toxic | Activity [25]: Active | Activity [26]: 13.16% | Activity [27]: 74.95% | Activity [28]: 8.51% | Activity [29]: 3.14% | Activity [30]: Non-Toxic | Activity [31]: 1.29% | Activity [32]: 14.32% | viability at 0.625 µM [33]: 89.5%

— ChEMBL document CHEMBL5352446, “Synthesis and biological evaluation of a novel c-Myc inhibitor against colorectal cancer via blocking c-Myc/Max heterodimerization and disturbing its DNA binding” (Eur J Med Chem, 2022)
